In patent US20230295197A1, “STAT5 and STAT6 Degraders and Uses Thereof” (REGENTS OF THE UNIVERSITY OF MICHICAN, priority 2022, published 2023) one finds DC50 data, which are given here for 9 compounds.

The assay addresses T1, STAT6 (Homo sapiens, UniProt P42226).
T1 construct: endogenous in cells; host or cells: MOLM-16, KU-812, SKNO1, MB231, L1236
T1 sequence (P42226 1-847): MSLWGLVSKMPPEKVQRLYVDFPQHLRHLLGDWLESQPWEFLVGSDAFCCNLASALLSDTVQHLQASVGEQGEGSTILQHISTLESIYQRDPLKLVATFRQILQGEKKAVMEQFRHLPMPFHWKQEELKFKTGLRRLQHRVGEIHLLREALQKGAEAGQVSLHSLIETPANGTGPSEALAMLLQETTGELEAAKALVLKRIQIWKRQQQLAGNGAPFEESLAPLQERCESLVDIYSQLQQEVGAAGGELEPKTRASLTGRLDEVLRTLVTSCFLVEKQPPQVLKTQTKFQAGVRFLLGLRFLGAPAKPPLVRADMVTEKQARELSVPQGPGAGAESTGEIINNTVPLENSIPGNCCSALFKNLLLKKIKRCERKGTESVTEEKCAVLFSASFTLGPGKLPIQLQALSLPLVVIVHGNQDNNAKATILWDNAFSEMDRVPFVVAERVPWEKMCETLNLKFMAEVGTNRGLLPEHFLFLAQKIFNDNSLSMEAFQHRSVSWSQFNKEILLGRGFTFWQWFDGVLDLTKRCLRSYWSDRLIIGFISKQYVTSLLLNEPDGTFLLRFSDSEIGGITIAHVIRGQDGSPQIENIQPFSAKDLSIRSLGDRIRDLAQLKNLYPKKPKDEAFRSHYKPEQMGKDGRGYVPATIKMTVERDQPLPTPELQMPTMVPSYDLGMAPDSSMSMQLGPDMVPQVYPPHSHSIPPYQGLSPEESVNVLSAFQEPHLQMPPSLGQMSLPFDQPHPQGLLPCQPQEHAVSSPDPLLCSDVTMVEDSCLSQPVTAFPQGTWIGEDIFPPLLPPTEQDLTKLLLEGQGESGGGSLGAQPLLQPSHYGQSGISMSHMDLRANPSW
Briefly: Immunoblotting (Western blot) analysis of STAT6 degradation efficiency of degraders in treated cells. The assay is classed as cell-based. Summed up: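 About 1 million cells per point, grown in 10% FBS medium at 37 °C/5% CO2, were exposed to compound at the indicated concentrations and times, then lysed in RIPA buffer with protease and phosphatase inhibitors. Equal protein (20-40 μg) was resolved by SDS-PAGE, blotted to PVDF, and probed with anti-STAT5, anti-STAT6 and anti-GAPDH antibodies.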
A general note: A western blot detects proteins with antibodies after separation by electrophoresis.

[1] abbreviates: L1236 cells, read-out: DC50 S6 L1236.
[2] abbreviates: MOLM-16 cells, class symbols, read-out: DC50 S6 MOLM-16.

Where two headings read alike, the source gives them in different places. A value given as a limit tells only on which side of the number the result lay.

As usually defined, the DC50 is the concentration giving 50% degradation. `Cc1ncsc1-c1ccc([C@H](C)NC(=O)[C@@H]2C[C@@H](O)CN2C(=O)[C@@H](NC(=O)CCCCCCNC(=O)CO[C@H]2C[C@@H](C(=O)N3CCO[C@H](c4ccccc4)C3)N(C(=O)[C@@H](NC(=O)c3cc4cc(C(F)(F)P(=O)(O)O)ccc4s3)C(C)(C)C)C2)C(C)(C)C)cc1` [Compound 430, (difluoro(2-(((S)-1-((2S,4S)-4-(2-((7-(((S)-1-((2S,4R)-4-hydroxy-2-(((S)-1-(4-(4-methylthiazol-5-yl)phenyl)ethyl)carbamoyl)pyrrolidin-1-yl)-3,3-dimethyl-1-oxobutan-2-yl)amino)-7-oxoheptyl)amino)-2-oxoethoxy)-2-((R)-2-phenylmorpholine-4-carbonyl)pyrrolidin-1-yl)-3,3-dimethyl-1-oxobutan-2-yl)carbamoyl)benzo[b]thiophen-5-yl)methyl)phosphonic acid]: the DC50 under setting [1] was > 10 µM and the DC50 under setting [2] was > 10 µM.
`Cc1ncsc1-c1ccc([C@H](C)NC(=O)[C@@H]2C[C@@H](O)CN2C(=O)[C@@H](NC(=O)CCCCCCCNC(=O)CO[C@H]2C[C@@H](C(=O)N3CCO[C@H](c4ccccc4)C3)N(C(=O)[C@@H](NC(=O)c3cc4cc(C(F)(F)P(=O)(O)O)ccc4s3)C(C)(C)C)C2)C(C)(C)C)cc1` [Compound 431, (difluoro(2-(((S)-1-((2S,4S)-4-(2-((8-(((S)-1-((2S,4R)-4-hydroxy-2-(((S)-1-(4-(4-methylthiazol-5-yl)phenyl)ethyl)carbamoyl)pyrrolidin-1-yl)-3,3-dimethyl-1-oxobutan-2-yl)amino)-8-oxooctyl)amino)-2-oxoethoxy)-2-((R)-2-phenylmorpholine-4-carbonyl)pyrrolidin-1-yl)-3,3-dimethyl-1-oxobutan-2-yl)carbamoyl)benzo[b]thiophen-5-yl)methyl)phosphonic acid]: the half-maximal degradation concentration (DC50) was > 10 µM under setting [1] and > 10 µM under setting [2].
Take `Cc1ncsc1-c1ccc([C@H](C)NC(=O)[C@@H]2C[C@@H](O)CN2C(=O)[C@@H](NC(=O)CCCCCCCCNC(=O)CO[C@H]2C[C@@H](C(=O)N3CCO[C@H](c4ccccc4)C3)N(C(=O)[C@@H](NC(=O)c3cc4cc(C(F)(F)P(=O)(O)O)ccc4s3)C(C)(C)C)C2)C(C)(C)C)cc1` [Compound 432, (difluoro(2-(((S)-1-((2S,4S)-4-(2-((9-(((S)-1-((2S,4R)-4-hydroxy-2-(((S)-1-(4-(4-methylthiazol-5-yl)phenyl)ethyl)carbamoyl)pyrrolidin-1-yl)-3,3-dimethyl-1-oxobutan-2-yl)amino)-9-oxononyl)amino)-2-oxoethoxy)-2-((R)-2-phenylmorpholine-4-carbonyl)pyrrolidin-1-yl)-3,3-dimethyl-1-oxobutan-2-yl)carbamoyl)benzo[b]thiophen-5-yl)methyl)phosphonic acid]: the DC50 under setting [1] is > 10 µM and the DC50 under setting [2] is > 10 µM.
Consider `Cc1ncsc1-c1ccc([C@H](C)NC(=O)[C@@H]2C[C@@H](O)CN2C(=O)[C@@H](NC(=O)CCCCCCCCCNC(=O)CO[C@H]2C[C@@H](C(=O)N3CCO[C@H](c4ccccc4)C3)N(C(=O)[C@@H](NC(=O)c3cc4cc(C(F)(F)P(=O)(O)O)ccc4s3)C(C)(C)C)C2)C(C)(C)C)cc1` [Compound 433, (difluoro(2-(((S)-1-((2S,4S)-4-(2-((10-(((S)-1-((2S,4R)-4-hydroxy-2-(((S)-1-(4-(4-methylthiazol-5-yl)phenyl)ethyl)carbamoyl)pyrrolidin-1-yl)-3,3-dimethyl-1-oxobutan-2-yl)amino)-10-oxodecyl)amino)-2-oxoethoxy)-2-((R)-2-phenylmorpholine-4-carbonyl)pyrrolidin-1-yl)-3,3-dimethyl-1-oxobutan-2-yl)carbamoyl)benzo[b]thiophen-5-yl)methyl)phosphonic acid], for which the DC50 reads like this: under setting [1], > 10 µM; under setting [2], > 10 µM.
Regarding `Cc1ncsc1-c1ccc([C@H](C)NC(=O)[C@@H]2C[C@@H](O)CN2C(=O)[C@@H](NC(=O)CNC(=O)CO[C@H]2C[C@@H](C(=O)N3CCC[C@H](c4ccccc4)C3)N(C(=O)[C@@H](NC(=O)c3cc4cc(C(F)(F)P(=O)(O)O)ccc4s3)C(C)(C)C)C2)C(C)(C)C)cc1` [Compound 434, (difluoro(2-(((S)-1-((2S,4S)-4-(2-((2-(((S)-1-((2S,4R)-4-hydroxy-2-(((S)-1-(4-(4-methylthiazol-5-yl)phenyl)ethyl)carbamoyl)pyrrolidin-1-yl)-3,3-dimethyl-1-oxobutan-2-yl)amino)-2-oxoethyl)amino)-2-oxoethoxy)-2-((R)-3-phenylpiperidine-1-carbonyl)pyrrolidin-1-yl)-3,3-dimethyl-1-oxobutan-2-yl)carbamoyl)benzo[b]thiophen-5-yl)methyl)phosphonic acid], the half-maximal degradation concentration (DC50) reads like this: under setting [1], > 10 µM; under setting [2], > 10 µM.
Take `Cc1ncsc1-c1ccc([C@H](C)NC(=O)[C@@H]2C[C@@H](O)CN2C(=O)[C@@H](NC(=O)CCNC(=O)CO[C@H]2C[C@@H](C(=O)N3CCC[C@H](c4ccccc4)C3)N(C(=O)[C@@H](NC(=O)c3cc4cc(C(F)(F)P(=O)(O)O)ccc4s3)C(C)(C)C)C2)C(C)(C)C)cc1` [Compound 435, (difluoro(2-(((S)-1-((2S,4S)-4-(2-((3-(((S)-1-((2S,4R)-4-hydroxy-2-(((S)-1-(4-(4-methylthiazol-5-yl)phenyl)ethyl)carbamoyl)pyrrolidin-1-yl)-3,3-dimethyl-1-oxobutan-2-yl)amino)-3-oxopropyl)amino)-2-oxoethoxy)-2-((R)-3-phenylpiperidine-1-carbonyl)pyrrolidin-1-yl)-3,3-dimethyl-1-oxobutan-2-yl)carbamoyl)benzo[b]thiophen-5-yl)methyl)phosphonic acid]: the half-maximal degradation concentration (DC50) under setting [1] was > 10 µM and the half-maximal degradation concentration (DC50) under setting [2] was > 10 µM.
For the compound `Cc1ncsc1-c1ccc([C@H](C)NC(=O)[C@@H]2C[C@@H](O)CN2C(=O)[C@@H](NC(=O)CCCNC(=O)CO[C@H]2C[C@@H](C(=O)N3CCC[C@H](c4ccccc4)C3)N(C(=O)[C@@H](NC(=O)c3cc4cc(C(F)(F)P(=O)(O)O)ccc4s3)C(C)(C)C)C2)C(C)(C)C)cc1` [Compound 436, (difluoro(2-(((S)-1-((2S,4S)-4-(2-((4-(((S)-1-((2S,4R)-4-hydroxy-2-(((S)-1-(4-(4-methylthiazol-5-yl)phenyl)ethyl)carbamoyl)pyrrolidin-1-yl)-3,3-dimethyl-1-oxobutan-2-yl)amino)-4-oxobutyl)amino)-2-oxoethoxy)-2-((R)-3-phenylpiperidine-1-carbonyl)pyrrolidin-1-yl)-3,3-dimethyl-1-oxobutan-2-yl)carbamoyl)benzo[b]thiophen-5-yl)methyl)phosphonic acid], the DC50 under setting [1] was > 10 µM and the DC50 under setting [2] is > 10 µM.
For `Cc1ncsc1-c1ccc([C@H](C)NC(=O)[C@@H]2C[C@@H](O)CN2C(=O)[C@@H](NC(=O)CCCCNC(=O)CO[C@H]2C[C@@H](C(=O)N3CCC[C@H](c4ccccc4)C3)N(C(=O)[C@@H](NC(=O)c3cc4cc(C(F)(F)P(=O)(O)O)ccc4s3)C(C)(C)C)C2)C(C)(C)C)cc1` [Compound 437, (difluoro(2-(((S)-1-((2S,4S)-4-(2-((5-(((S)-1-((2S,4R)-4-hydroxy-2-(((S)-1-(4-(4-methylthiazol-5-yl)phenyl)ethyl)carbamoyl)pyrrolidin-1-yl)-3,3-dimethyl-1-oxobutan-2-yl)amino)-5-oxopentyl)amino)-2-oxoethoxy)-2-((R)-3-phenylpiperidine-1-carbonyl)pyrrolidin-1-yl)-3,3-dimethyl-1-oxobutan-2-yl)carbamoyl)benzo[b]thiophen-5-yl)methyl)phosphonic acid], the DC50 is > 10 µM under setting [1] and > 10 µM under setting [2].
For the compound `Cc1ncsc1-c1ccc([C@H](C)NC(=O)[C@@H]2C[C@@H](O)CN2C(=O)[C@@H](NC(=O)CCCCCNC(=O)CO[C@H]2C[C@@H](C(=O)N3CCC[C@H](c4ccccc4)C3)N(C(=O)[C@@H](NC(=O)c3cc4cc(C(F)(F)P(=O)(O)O)ccc4s3)C(C)(C)C)C2)C(C)(C)C)cc1` [Compound 438, (difluoro(2-(((S)-1-((2S,4S)-4-(2-((6-(((S)-1-((2S,4R)-4-hydroxy-2-(((S)-1-(4-(4-methylthiazol-5-yl)phenyl)ethyl)carbamoyl)pyrrolidin-1-yl)-3,3-dimethyl-1-oxobutan-2-yl)amino)-6-oxohexyl)amino)-2-oxoethoxy)-2-((R)-3-phenylpiperidine-1-carbonyl)pyrrolidin-1-yl)-3,3-dimethyl-1-oxobutan-2-yl)carbamoyl)benzo[b]thiophen-5-yl)methyl)phosphonic acid], the DC50 runs as follows: under setting [1], > 10 µM; under setting [2], > 10 µM.
